# Data published in ChEMBL document CHEMBL1201862, “PubChem BioAssay data set” (2004).
# The source made the active and inactive calls. Cut-off read from the data, not from the text of the source, for most assays here: actives have a measured EC50 and inactives only a lower limit.
# Assays:
# Vero = Vero cell cytotoxicity, cytotoxicity control for flavivirus capping enzyme inhibitors (AID 588742); assay type: functional; settings: Chlorocebus sabaeus
# [1] = A Cell Based Secondary Assay To Explore Cytotoxicity of Compounds that Sensitize Mycobacterium Tuberculosis to Beta-Lactam Antibiotics.; assay type: functional
# Melanocortin receptor 4 = Melanocortin receptor 4 (Homo sapiens, UniProt P32245); assay type: functional, cell-based;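 note: Cell-based assay with luminescence read-out, confirmatory dose-response testing for agonist activity of biased ligands at MC4R; human U2OS cells with tagged receptor and beta-arrestin; potency of agonists that increase receptor coupling to beta-arrestin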
# Sequence of Melanocortin receptor 4 (P32245 whole entry): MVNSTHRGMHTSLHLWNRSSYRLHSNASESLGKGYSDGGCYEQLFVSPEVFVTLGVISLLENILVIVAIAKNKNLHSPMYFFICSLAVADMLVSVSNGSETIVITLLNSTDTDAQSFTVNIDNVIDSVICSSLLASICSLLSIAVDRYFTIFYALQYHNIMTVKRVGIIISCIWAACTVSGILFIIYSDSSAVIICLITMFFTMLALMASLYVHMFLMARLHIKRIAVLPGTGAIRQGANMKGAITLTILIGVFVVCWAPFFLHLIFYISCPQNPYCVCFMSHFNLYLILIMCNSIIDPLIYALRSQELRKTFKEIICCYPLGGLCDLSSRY
# cells [2] = assay type: functional, cell-based
# BJ [3] = assay: cytotoxicity toward BJ-TERT fibroblasts, dose response, cell-based, RAS-independent, luminescence (AID 1933); assay type: functional; settings: Homo sapiens
# INS1 = assay: beta cell apoptosis inhibitors, cytokine rescue, dose response, luminescence, retest (AID 449756); assay type: functional, cell-based; settings: Rattus norvegicus;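 note: cell death triggered by IL-1 beta plus TNF-alpha plus IFN-gamma mixture; protective hits raise ATP signal compared with cytokine alone wells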
# [4] = cytotoxicity toward DRD oncogenic fibroblasts, dose response, cell-based, non-viral oncogenic, luminescence (AID 1934); assay type: functional; settings: Homo sapiens
# BJ [5] = assay: cytotoxicity toward BJ-TERT-LT-ST fibroblasts, dose response, cell-based, RAS-independent, luminescence (AID 1935); assay type: functional; settings: Homo sapiens;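 note: BJ fibroblasts immortalized with TERT plus LT and ST oncogenes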
# BJ [6] = assay: cells; assay type: functional, cell-based; settings: Homo sapiens
# cells [7] = assay type: functional, cell-based; remark: listed apart in the source
# [8] = inhibitors of firefly luciferase expression or activity, dose response, H4 neuroglioma cells, luminescence (AID 1990); assay type: functional, cell-based
# [9] = Luminescence Cell-Based Dose Response HTS to Identify Inhibitors of 5'UTR Stem-Loop Driven Prion Protein mRNA Translation in H4 Neuroglioblastoma Cells. [Related pubchem assays: 1827 (Project Summary), 1813 (Primary HTS)]; assay type: functional
# [10] = inhibitors of SNCA 5'UTR-driven reporter translation, confirmation, H4 neuroglioma cells, luminescence (AID 1988); assay type: functional, cell-based
# BJ [11] = assay: cytotoxicity toward Ras-transformed BJeLR fibroblasts, dose response, cell-based, alamar blue fluorescence, cherrypicked samples (AID 2631); assay type: functional; settings: Homo sapiens;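 note: confirmatory dose-response assay in RAS-dependent BJ fibroblasts engineered with TERT, LT and ST, with cytotoxicity read by fluorescence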
# [12] = molecular target: T1, RNA-binding protein pos-1 (Caenorhabditis elegans, UniProt G5EF15); assay: inhibitors of POS-1/mex-3 RNA binding, dose response, biochemical, fluorescence polarization (AID 1964);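 note: purified POS-1 fused to maltose binding protein made in E. coli; potency of compounds blocking POS-1 binding to fluorescent RNA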
# T1 sequence (G5EF15 whole entry): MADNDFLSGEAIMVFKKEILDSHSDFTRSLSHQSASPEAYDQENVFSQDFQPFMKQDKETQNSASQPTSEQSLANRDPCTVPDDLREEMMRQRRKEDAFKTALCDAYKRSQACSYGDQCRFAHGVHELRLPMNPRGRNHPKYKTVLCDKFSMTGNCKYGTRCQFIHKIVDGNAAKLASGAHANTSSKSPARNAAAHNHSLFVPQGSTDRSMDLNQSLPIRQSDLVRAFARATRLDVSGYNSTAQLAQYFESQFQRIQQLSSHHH
# [13] = molecular target: T2, Zinc finger protein mex-5 (Caenorhabditis elegans, UniProt Q9XUB2); assay: MEX-5/TCR-2 RNA interaction inhibitors, dose response, biochemical, C. elegans, fluorescence polarization (AID 1960)
# T2 sequence (Q9XUB2 whole entry): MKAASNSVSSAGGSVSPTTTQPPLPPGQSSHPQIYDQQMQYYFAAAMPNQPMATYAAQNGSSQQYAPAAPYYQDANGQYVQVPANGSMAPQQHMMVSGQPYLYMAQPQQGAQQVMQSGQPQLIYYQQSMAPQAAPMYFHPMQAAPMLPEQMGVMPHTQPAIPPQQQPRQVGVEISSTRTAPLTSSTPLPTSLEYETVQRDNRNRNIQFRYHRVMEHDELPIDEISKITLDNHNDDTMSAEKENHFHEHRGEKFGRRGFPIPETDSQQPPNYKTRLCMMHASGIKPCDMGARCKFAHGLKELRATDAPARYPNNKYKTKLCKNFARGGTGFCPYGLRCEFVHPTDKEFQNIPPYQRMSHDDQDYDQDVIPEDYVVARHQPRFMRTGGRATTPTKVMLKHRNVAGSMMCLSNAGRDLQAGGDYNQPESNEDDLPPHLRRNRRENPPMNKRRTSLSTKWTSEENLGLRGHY
# [14] = molecular target: Photoreceptor-specific nuclear receptor (Homo sapiens, UniProt Q9Y5X4); assay type: functional, cell-based;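 note: CHO-S cells with Gal4-NCOR and VP16-NR2E3 two-hybrid luciferase reporter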
# Sequence of Photoreceptor-specific nuclear receptor (Q9Y5X4 whole entry, the tested form may be a part): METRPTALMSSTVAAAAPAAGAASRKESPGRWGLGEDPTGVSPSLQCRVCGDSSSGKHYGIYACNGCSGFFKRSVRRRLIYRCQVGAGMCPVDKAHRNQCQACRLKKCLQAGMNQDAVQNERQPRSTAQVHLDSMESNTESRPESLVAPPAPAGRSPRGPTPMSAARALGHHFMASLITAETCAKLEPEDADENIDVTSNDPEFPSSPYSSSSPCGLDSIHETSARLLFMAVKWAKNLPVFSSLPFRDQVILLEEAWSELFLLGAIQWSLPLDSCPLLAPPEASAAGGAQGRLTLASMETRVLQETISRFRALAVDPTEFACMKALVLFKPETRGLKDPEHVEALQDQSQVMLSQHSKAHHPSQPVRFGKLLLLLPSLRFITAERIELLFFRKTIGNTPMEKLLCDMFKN
# Protein skinhead-1 = molecular target: T3, Protein skinhead-1 (Caenorhabditis elegans, UniProt P34707); assay type: functional
# T3 sequence (P34707 whole entry): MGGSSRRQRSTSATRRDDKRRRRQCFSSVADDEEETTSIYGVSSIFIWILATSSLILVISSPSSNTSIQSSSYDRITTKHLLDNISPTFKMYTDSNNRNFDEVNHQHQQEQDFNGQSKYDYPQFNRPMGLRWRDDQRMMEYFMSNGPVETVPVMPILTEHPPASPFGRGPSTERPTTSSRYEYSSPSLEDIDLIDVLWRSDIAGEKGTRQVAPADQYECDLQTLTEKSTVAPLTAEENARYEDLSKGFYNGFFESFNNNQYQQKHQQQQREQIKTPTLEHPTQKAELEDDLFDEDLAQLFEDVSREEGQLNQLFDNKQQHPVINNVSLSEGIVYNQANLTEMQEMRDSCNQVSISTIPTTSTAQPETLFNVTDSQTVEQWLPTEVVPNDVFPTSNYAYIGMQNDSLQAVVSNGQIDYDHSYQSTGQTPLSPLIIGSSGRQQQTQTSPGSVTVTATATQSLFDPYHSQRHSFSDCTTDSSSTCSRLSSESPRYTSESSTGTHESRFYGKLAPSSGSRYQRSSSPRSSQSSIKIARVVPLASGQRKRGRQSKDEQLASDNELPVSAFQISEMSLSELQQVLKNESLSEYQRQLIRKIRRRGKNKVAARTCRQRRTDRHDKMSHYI
# Protein Wnt-3a = Protein Wnt-3a (Mus musculus, UniProt P27467); assay: Wnt3a-driven reporter signaling inhibition, dose response, selectivity assay for Gli-SUFU antagonist project, Wnt-LIGHT cells, luminescence (AID 651570); assay type: functional; settings: read-out: IC50_Mean;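 note: Wnt-LIGHT reporter cells stimulated with conditioned medium from Wnt3a-producing cells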
# Sequence of Protein Wnt-3a (P27467 whole entry): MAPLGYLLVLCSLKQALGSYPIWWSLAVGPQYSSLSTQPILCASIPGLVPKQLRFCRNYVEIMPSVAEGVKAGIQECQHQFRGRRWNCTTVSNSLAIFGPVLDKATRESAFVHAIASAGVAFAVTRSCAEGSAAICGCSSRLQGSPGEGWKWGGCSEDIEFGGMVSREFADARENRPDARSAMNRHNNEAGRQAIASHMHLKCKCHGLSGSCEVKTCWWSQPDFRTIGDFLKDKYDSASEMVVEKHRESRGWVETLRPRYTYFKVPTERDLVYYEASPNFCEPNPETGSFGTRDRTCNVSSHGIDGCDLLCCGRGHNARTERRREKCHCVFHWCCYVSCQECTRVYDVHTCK
compound,measurement,setting,value
CCn1c(=O)c(C(=O)CN2CCc3ccccc32)c(N)n(Cc2ccccc2)c1=O,CC50,Vero,> 40 µM (active)
Clc1ccc(/C=N/NC2=Nc3cccc4cccc2c34)cc1,CC50,[1],21.4 µM (active)
same,EC50,Melanocortin receptor 4,> 89.1 µM (inactive)
C/C(=N\Nc1nc2ccccc2[nH]1)c1ccccn1,EC50,cells [2],13.8 µM (active)
same,EC50,BJ [3],0.672 µM (active)
same,AC50,INS1,< 0.195 µM (active)
same,EC50,[4],2.24 µM (active)
same,EC50,BJ [5],1.38 µM (inconclusive)
same,EC50,BJ [6],4.7 µM (active)
same,EC50,cells [7],6.03 µM (active)
same,EC50,[8],0.306 µM (active)
same,EC50,[9],0.154 µM (active)
same,EC50,[10],0.107 µM (active)
same,EC50,BJ [11],< 0.104 µM (active)
COc1ccc(N2C(=O)/C(=C/c3ccc(C)o3)C(=O)NC2=S)cc1,EC50,BJ [3],> 150 µM (not active)
same,EC50,[4],15.9 µM (active)
same,EC50,[12],> 300 µM (not active)
same,EC50,BJ [5],> 75 µM (inconclusive)
same,EC50,BJ [6],17 µM (active)
same,EC50,[13],> 300 µM (not active)
same,EC50,BJ [11],> 133 µM (inactive)
C=C(C(=O)c1ccccc1)C(NC(C)(C)C)c1ccccc1 (centres undefined),IC50,[14],2.01 µM (active)
CC(=O)Nc1cccc(OCC(=O)/C=C2\N(C)c3ccccc3C2(C)C)c1,IC50,Protein skinhead-1,> 100 µM (inactive)
same,IC50,Protein Wnt-3a,50 µM (inactive)
